Experimental data from ChEMBL document CHEMBL1201862, “PubChem BioAssay data set” (2004).
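Briefly, cells in 96-well plates were exposed to five compound concentrations for 48 h, and endpoints were estimated by linear interpolation. GI50 = concentration required for 50% inhibition of growth.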 Calls of active or inactive are those of the source. Cut-off read from the data, not from the text of the source: active = GI50 up to about 1.1 µM and inactive = higher.

Assays:
Test in all cases: inhibition of tumour cell growth, NCI panel, 48 h
HCC 2998 = test system: HCC 2998
UACC-257 = test system: UACC-257
UACC-62 = test system: UACC-62
EKVX = test system: EKVX
OVCAR-3 = test system: OVCAR-3
NCI/ADR-RES = test system: NCI/ADR-RES
HCT-15 = test system: HCT-15
HOP-62 = test system: HOP-62
MDA-MB-435 = test system: MDA-MB-435
786-0 = test system: 786-0
SK-MEL-2 = test system: SK-MEL-2
SF-268 = test system: SF-268
DU-145 = test system: DU-145
SK-MEL-5 = test system: SK-MEL-5
CAKI-1 = test system: CAKI-1
OVCAR-4 = test system: OVCAR-4
CCRF-CEM = test system: CCRF-CEM
SN12C = test system: SN12C
SK-OV-3 = test system: SK-OV-3
DMS-273 = test system: DMS-273

Row | SMILES | GI50 (HCC 2998) | GI50 (UACC-257) | GI50 (UACC-62) | GI50 (EKVX) | GI50 (OVCAR-3) | GI50 (NCI/ADR-RES) | GI50 (HCT-15) [µM] | GI50 (HOP-62) | GI50 (MDA-MB-435) | GI50 (786-0) | GI50 (SK-MEL-2) | GI50 (SF-268) | GI50 (DU-145) | GI50 (SK-MEL-5) | GI50 (CAKI-1) | GI50 (OVCAR-4) | GI50 (CCRF-CEM) | GI50 (SN12C) | GI50 (SK-OV-3) | GI50 (DMS-273)
1 | CC(=O)Oc1ccc2c(C)cc(=O)oc2c1 | > 100 µM (inactive) | > 100 µM (inactive) | > 100 µM (inactive) | > 100 µM (inactive) | > 100 µM (inactive) | > 100 µM (inactive) | > 100 | > 100 µM (inactive) | > 100 µM (inactive) | > 100 µM (inactive) | > 100 µM (inactive) | > 100 µM (inactive) | > 100 µM (inactive) | > 100 µM (inactive) | > 100 µM (inactive) | > 100 µM (inactive) | > 100 µM (inactive) | > 100 µM (inactive) | > 100 µM (inactive) | 
2 | O=C1CCCC2COc3ccc(O)c1c32 (stereo not given) | > 100 µM (inactive) | > 100 µM (inactive) | > 100 µM (inactive) | > 100 µM (inactive) | > 100 µM (inactive) |  | > 100 | > 100 µM (inactive) |  | > 100 µM (inactive) | > 100 µM (inactive) | > 100 µM (inactive) |  | > 100 µM (inactive) |  | > 100 µM (inactive) | > 100 µM (inactive) | > 100 µM (inactive) | > 100 µM (inactive) | > 100 µM (inactive)
3 | COc1ccccc1/C=C/C(=O)c1sc(-c2cccnc2)nc1C | > 100 µM (inactive) | > 100 µM (inactive) | > 100 µM (inactive) | > 100 µM (inactive) | > 100 µM (inactive) |  | > 100 | > 100 µM (inactive) |  | > 100 µM (inactive) | > 100 µM (inactive) | > 100 µM (inactive) |  | 47.3 µM (inactive) | > 100 µM (inactive) |  | 84.3 µM (inactive) | > 100 µM (inactive) | > 100 µM (inactive) | > 100 µM (inactive)
4 | CCCCCCN(N)C(=O)CC#N | > 100 µM (inactive) | > 100 µM (inactive) | 60.4 µM (inactive) | > 100 µM (inactive) | 79.1 µM (inactive) |  | > 100 | > 100 µM (inactive) |  | > 100 µM (inactive) |  | > 100 µM (inactive) |  | 70.6 µM (inactive) | > 100 µM (inactive) | 48.4 µM (inactive) | > 100 µM (inactive) | > 100 µM (inactive) | > 100 µM (inactive) | > 100 µM (inactive)
5 | CO[C@H](c1ccccc1)[C@H](C)N(C)c1ccc2ccccc2c1C1=NC(C)(C)CO1 |  | 15.7 µM (inactive) | 33.1 µM (inactive) | 20.1 µM (inactive) | 15.9 µM (inactive) |  | 14.6 | 21 µM (inactive) |  | 16.2 µM (inactive) | 14.3 µM (inactive) | 18.4 µM (inactive) |  | 88.3 µM (inactive) | > 10 µM (inactive) | > 10 µM (inactive) | 15.4 µM (inactive) | 18 µM (inactive) | 19.2 µM (inactive) | 19.2 µM (inactive)
6 | COc1ccc(P2(=S)Oc3ccc(C(c4ccccc4)(c4ccccc4)c4ccccc4)cc3O2)cc1 (stereo not given) | 16.3 µM (inactive) | 19.2 µM (inactive) | 13.4 µM (inactive) | 20.2 µM (inactive) | 16.9 µM (inactive) | 20.6 µM (inactive) | 19.3 | 24.6 µM (inactive) | 16.4 µM (inactive) | 18 µM (inactive) | 20.5 µM (inactive) | 17.2 µM (inactive) | 20.5 µM (inactive) | 21.6 µM (inactive) | 19.1 µM (inactive) | 13.2 µM (inactive) | 24.9 µM (inactive) | 17.9 µM (inactive) | 23 µM (inactive) | 
7 | COc1ccc(C2CC(c3ccc(NS(=O)(=O)c4cc([N+](=O)[O-])ccc4C)cc3)=NN2S(=O)(=O)c2cc([N+](=O)[O-])ccc2C)cc1 (stereo not given) | 10.5 µM (inactive) | 30.6 µM (inactive) | 26.4 µM (inactive) | 39.7 µM (inactive) | 33.4 µM (inactive) | 40.8 µM (inactive) | 36.2 | 80 µM (inactive) | 46 µM (inactive) | 88.5 µM (inactive) | 35.6 µM (inactive) | 22.8 µM (inactive) | > 100 µM (inactive) | 42.2 µM (inactive) | 54.2 µM (inactive) | 40 µM (inactive) | 65.2 µM (inactive) | 43.5 µM (inactive) | 85.3 µM (inactive) | 
8 | NC(=O)C(=CNC(=S)c1ccncc1)C(N)=O | > 100 µM (inactive) | > 100 µM (inactive) | > 100 µM (inactive) | > 100 µM (inactive) | > 100 µM (inactive) | > 100 µM (inactive) | > 100 | > 100 µM (inactive) | > 100 µM (inactive) | > 100 µM (inactive) | > 100 µM (inactive) | > 100 µM (inactive) | > 100 µM (inactive) | > 100 µM (inactive) | > 100 µM (inactive) | > 100 µM (inactive) | > 100 µM (inactive) | > 100 µM (inactive) | > 100 µM (inactive) | 
9 | O=C1C(Br)=Cc2c(Cl)sc(Cl)c21 | 2.37 µM (inactive) | 5.45 µM (inactive) | 7.91 µM (inactive) | 7.24 µM (inactive) | 2.67 µM (inactive) | 8.65 µM (inactive) | 3.69 | 7.45 µM (inactive) | 2.11 µM (inactive) | 1.77 µM (inactive) | 13.6 µM (inactive) | 3.4 µM (inactive) | 5.42 µM (inactive) | 19.5 µM (inactive) | 3.05 µM (inactive) | 2.74 µM (inactive) | 0.232 µM (active) | 5.51 µM (inactive) | 15.5 µM (inactive) | 
10 | O=c1c(-c2cccc3ccccc23)c(-c2cccc3ccccc23)c1=O | 0.979 µM (active) | 4.25 µM (inactive) | 1.04 µM (active) | 7.67 µM (inactive) | 0.577 µM (active) |  | 2.42 | 3.57 µM (inactive) |  | 0.535 µM (active) | 2.29 µM (inactive) | 5.47 µM (inactive) |  | 3 µM (inactive) | 2.91 µM (inactive) |  | 0.395 µM (active) | 5.06 µM (inactive) | 10.8 µM (inactive) | 1.71 µM (inactive)
11 | COC(=O)CC(NC(=O)OCc1ccccc1)C(C(=O)OCc1ccccc1)C1(C)OCCO1 (stereo not given) | 61.9 µM (inactive) | 30.4 µM (inactive) | 18.7 µM (inactive) | 44.4 µM (inactive) | 53.8 µM (inactive) |  | 37.8 | 47.5 µM (inactive) |  | 51.4 µM (inactive) | 20 µM (inactive) | 50.1 µM (inactive) |  | 17.5 µM (inactive) |  | 67.6 µM (inactive) | 26.6 µM (inactive) | 47.4 µM (inactive) |  | 39.5 µM (inactive)
12 | COc1ccc([N+]2=NC(c3ccc([N+](=O)[O-])cc3)=NN(c3ccccc3)C2)cc1.[O-][Cl+3]([O-])([O-])[O-] | > 100 µM (inactive) | > 100 µM (inactive) |  | 91.2 µM (inactive) | 79.4 µM (inactive) |  | 41.9 | > 100 µM (inactive) |  | > 100 µM (inactive) |  | > 100 µM (inactive) |  | 28.4 µM (inactive) |  | > 100 µM (inactive) | 21.2 µM (inactive) | > 100 µM (inactive) |  | > 100 µM (inactive)
13 | O=c1[nH]c2ccc([N+](=O)[O-])c(Cl)c2c2ccccc12 | 5.46 µM (inactive) | 2.42 µM (inactive) | 3.79 µM (inactive) | 5.9 µM (inactive) | 3.72 µM (inactive) | 4.98 µM (inactive) | 3.56 | 10.8 µM (inactive) | 2.1 µM (inactive) | 5.78 µM (inactive) | 6.1 µM (inactive) | 2.74 µM (inactive) | 3.06 µM (inactive) | 3.84 µM (inactive) | 2.41 µM (inactive) | 10.7 µM (inactive) | 0.361 µM (active) | 2.58 µM (inactive) | 1.66 µM (inactive) | 
14 | Cn1ccnc1CCc1c(Cl)cccc1Cl |  | > 100 µM (inactive) | > 100 µM (inactive) |  | > 100 µM (inactive) |  | > 100 | > 100 µM (inactive) |  | > 100 µM (inactive) | > 100 µM (inactive) | > 100 µM (inactive) |  | > 100 µM (inactive) | > 100 µM (inactive) | > 100 µM (inactive) | > 100 µM (inactive) | > 100 µM (inactive) | > 100 µM (inactive) | > 100 µM (inactive)
15 | NC(=O)SCCC(N)C(=O)O (stereo not given) | > 100 µM (inactive) | > 100 µM (inactive) | > 100 µM (inactive) | > 100 µM (inactive) | > 100 µM (inactive) | > 100 µM (inactive) | > 100 | > 100 µM (inactive) | > 100 µM (inactive) | > 100 µM (inactive) | > 100 µM (inactive) | > 100 µM (inactive) | > 100 µM (inactive) | > 100 µM (inactive) | > 100 µM (inactive) | > 100 µM (inactive) | > 100 µM (inactive) | > 100 µM (inactive) | > 100 µM (inactive) | 
16 | CCOC(=O)c1c[nH]c2c(ccc3nn(C)nc32)c1=O | > 100 µM (inactive) | > 100 µM (inactive) | > 100 µM (inactive) | > 100 µM (inactive) | > 100 µM (inactive) |  | 41 | > 100 µM (inactive) |  | > 100 µM (inactive) | 19.4 µM (inactive) | > 100 µM (inactive) |  | > 100 µM (inactive) | > 100 µM (inactive) |  | 34 µM (inactive) | > 100 µM (inactive) | > 100 µM (inactive) | 19.9 µM (inactive)
17 | C/C(CC(=O)Nc1ccccc1C)=N/NS(=O)(=O)c1ccc(C)cc1 | > 100 µM (inactive) | > 100 µM (inactive) | > 100 µM (inactive) | > 100 µM (inactive) | > 100 µM (inactive) |  |  | > 100 µM (inactive) |  | > 100 µM (inactive) | > 100 µM (inactive) | > 100 µM (inactive) |  | > 100 µM (inactive) |  |  | > 100 µM (inactive) |  | > 100 µM (inactive) | > 100 µM (inactive)
